These are literature values, as cited in patent US20160067227A1, “PHARMACEUTICAL COMBINATIONS FOR THE TREATMENT OF METABOLIC DISORDERS” (Boehringer Ingelheim International GmbH, priority 2012, published 2016).

The conditions of the series: metformin on its own, in the diabetic.

`CN(C)C(=N)N=C(N)N` [metformin]: the “average improvement in the HbA1c value” is 1.0-1.5%.
